Tests used:
[1] = target: T1, purified Hemoglobin S (HbS) (Homo sapiens, UniProt P68871+P69905, E7V); test: Modulation of hemoglobin oxygen affinity: oxygen equilibrium curves (HEMOX) in purified HbS; type: biochemical, human (homozygous sickle cell patients); details: compound at 30 μM; 25 μM purified HbS, 45 min at 37° C.
T1 construct: HbS was purified by a modified procedure; from tissue; host or cells: blood of homozygous sickle cell patients (CHORI); for the polymerization assay purified by the CRO VIRUSYS
Outline: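 HbS from homozygous sickle cell patient blood, 25 μM in HEMOX buffer pH 7.4, incubated 45 min at 37° C with compound (30 μM unless noted). Air-saturated then deoxygenated with N2; p50 from Hill fit; delta p50% = (control p50 − treated p50)/control p50 × 100.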

HbS/A = target: T2, HbS/A (Homo sapiens, UniProt P68871+P69905, E7V); test: R/T assay (relaxed-to-tense transition under deoxygenated conditions); type: biochemical, human (homozygous sickle cell patients); details: compound at 9 μM; 3 μM HbS/A; % R remaining vs no treatment
T2 construct: A mixture of HbS/A was purified from blood; from tissue; host or cells: blood of homozygous sickle cell patients (CHORI)
Description: A relaxed-to-tense transition assay (“R/T assay”) was used to determine the ability of substituted benzaldehyde compounds to maintain the high-oxygen affinity relaxed (R) state of hemoglobin under deoxygenated conditions. This ability can be expressed as a “delta R” value (i.e., the change in the time-period of the R state after hemoglobin is treated with a compound, as compared to the period without treatment with the compound). Delta R is the % R to remaining after the compounds treatment compared with no treatment (e.g. if R % without treatment is 8% while with treatment with a target compound is 48% R at 30 μM, then % R is 40% for that compound.
A mixture of HbS/A was purified from blood obtained from homozygous sickle cell patients though the Hemoglobinopathy Center at Children's Hospital Oakland Research Institute (CHORI) with Institutional Review Board approval. HbS/A (at a final concentration of 3 μM) was incubated for 1 hr at 37° C. in presence or absence of compounds in […] potassium phosphate buffer, pH=7.4 and 30 μM 2, 3 diphosphoglycerate (DPG) in 96 well plates in a final volume of 160 μl. Compounds were added at different concentrations (3 μM to 100 μM final concentrations). Plates were covered with a Mylar film. After incubation was completed the Mylar cover was removed and the plates were placed in a Spectrostar Nano plate reader previously heated at 37° C. Five minutes later, N2 (flow rate=20 L/min) was flowed through the spectrophotometer. Spectroscopic measurements (300 nm to 700 nm) were taken every 5 min for 2 hours. Data analysis was performed by using linear regression from the data retrieved for all wavelengths.
Table 4 below lists the delta R values where + indicates a delta R of between 0 and 30, ++ indicates a delta R of between 30 and 50, and +++ indicates a delta R of 50 or greater. Unless noted otherwise, the compounds in Table 2 were tested at 30 μM.

whole blood = test: Whole blood assay: oxygen equilibrium curves of whole blood; type: cell-based, human (homozygous sickle cell patients); details: compound at 1000 μM; hematocrit 20%, 1 hour at 37° C.
Description: Oxygen Equilibrium Curves (OEC) of whole blood before and after treatment with different concentrations of substituted benzaldehyde compounds were performed as follows using a HEMOX analyzer (TCS Scientific, New Hope, Pa.). Blood samples from homozygous sickle cell patients were obtained though the Hemoglobinopathy Center at Children's Hospital Oakland Research Institute (CHORI) with Institutional Review Board approval. The hematocrit was adjusted to 20% using autologous plasma and the blood samples were incubated for 1 hour at 37° C. in absence or presence of compounds. 100 μl of these samples were added to 5 mL of Hemox buffer (30 mM TES, 130 mM NaCl, 5 mM KCl, pH=7.4) at 37° C. and then transferred to the Hemox sample chamber. The samples were saturated with oxygen by flushing with compressed air for 10 minutes. The samples were then flushed with pure nitrogen and the respective absorbances of oxy- and deoxy-Hb are recorded as a function of the solution pO2. The oxygen equilibrium data were then fitted to the Hill Model to obtain values for p50. The deoxygenation curves for both whole blood alone (control) and whole blood in the presence of the compound were collected with the TCS software.
Table 5 below lists the delta p50% values where + indicates a delta p50% of between 0 and 29, ++ indicates a delta p50% of between 30 and 50, and +++ indicates a delta p50% of 50 or greater. Unless noted otherwise, the compounds in Table 2 were tested at 1000 μM.

Row | delta p50% [1] | delta R (HbS/A) | Structure (SMILES) | delta p50% Values for Whole Blood Assay (whole blood)
1 | ++ (a delta p50% of between 30 and 50) | + (a delta R of between 0 and 30) | COc1cc(C=O)c(OCc2cccnc2-c2cnn(C)c2C)cn1 [Compound 143, 5-((2-(1,5-dimethyl-1H-pyrazol-4-yl)pyridin-3-yl)methoxy)-2-methoxyisonicotinaldehyde] | + (a delta p50% of between 0 and 29)
2 | ++ (a delta p50% of between 30 and 50) | + (a delta R of between 0 and 30) | Cc1ccc(OCc2cccc3cnn(C)c23)c(C=O)n1 [Compound 92, 6-methyl-3-((1-methyl-1H-indazol-7-yl)methoxy)picolinaldehyde] | + (a delta p50% of between 0 and 29)
3 | ++ (a delta p50% of between 30 and 50) | – | COc1cc(C=O)c(OCc2cncc(-c3ccnn3C)c2)cn1 [Compound 74, 2-methoxy-5-((5-(1-methyl-1H-pyrazol-5-yl)pyridin-3-yl)methoxy)isonicotinaldehyde] | ++ (a delta p50% of between 30 and 50)
4 | ++ (a delta p50% of between 30 and 50) | + (a delta R of between 0 and 30) | COc1cc(C=O)c(OCc2ccncc2)cn1 [Compound 46, 2-methoxy-5-(pyridin-4-ylmethoxy)isonicotinaldehyde] | –
5 | ++ (a delta p50% of between 30 and 50) | + (a delta R of between 0 and 30) | COc1cc(C=O)c(OCc2cccn3cncc23)cn1 [Compound 140, 5-(imidazo[1,5-a]pyridin-8-ylmethoxy)-2-methoxyisonicotinaldehyde] | + (a delta p50% of between 0 and 29)
6 | +++ (a delta p50% of 50 or greater) | + (a delta R of between 0 and 30) | COc1cc(C=O)c(OCc2cccnc2-c2ccnn2CCO)cn1 [Compound 191, 5-((2-(1-(2-hydroxyethyl)-1H-pyrazol-5-yl)pyridin-3-yl)methoxy)-2-methoxyisonicotinaldehyde] | +++ (a delta p50% of 50 or greater)
7 | ++ (a delta p50% of between 30 and 50) | ++ (a delta R of between 30 and 50) | COc1cc(C=O)c(OCc2cncc(C(=O)O)c2)cn1 [Compound 79, 5-((4-formyl-6-methoxypyridin-3-yloxy)methyl)nicotinic acid] | + (a delta p50% of between 0 and 29)
8 | ++ (a delta p50% of between 30 and 50) | + (a delta R of between 0 and 30) | COC(=O)c1cccn2cc(COc3cnc(OC)cc3C=O)nc12 [Compound 53, methyl 2-((4-formyl-6-methoxypyridin-3-yloxy)methyl)imidazo[1,2-a]pyridine-8-carboxylate] | –
9 | ++ (a delta p50% of between 30 and 50) | + (a delta R of between 0 and 30) | COc1cc(C=O)c(OCc2cccnc2-c2cccnc2)cn1 [Compound 161, 5-([2,3′-bipyridin]-3-ylmethoxy)-2-methoxyisonicotinaldehyde] | –
10 | ++ (a delta p50% of between 30 and 50) | ++ (a delta R of between 30 and 50) | Cc1ccc(OCc2cccc3ncccc23)c(C=O)n1 [Compound 119, 6-methyl-3-(quinolin-5-ylmethoxy)picolinaldehyde] | –
11 | ++ (a delta p50% of between 30 and 50) | ++ (a delta R of between 30 and 50) | COc1cc(C=O)c(OCc2cncc(Br)c2)cn1 [Compound 66, 5-((5-bromopyridin-3-yl)methoxy)-2-methoxyisonicotinaldehyde] | –
12 | ++ (a delta p50% of between 30 and 50) | + (a delta R of between 0 and 30) | Cc1ccc(OCc2cccc3c2cnn3C(=O)OC(C)(C)C)c(C=O)n1 [Compound 86, tert-butyl 4-((2-formyl-6-methylpyridin-3-yloxy)methyl)-1H-indazole-1-carboxylate] | –
13 | ++ (a delta p50% of between 30 and 50) | ++ (a delta R of between 30 and 50) | COc1cc(C=O)c(OCc2cccc3c2cnn3C)cn1 [Compound 84, 2-methoxy-5-((1-methyl-1H-indazol-4-yl)methoxy)isonicotinaldehyde] | –
14 | ++ (a delta p50% of between 30 and 50) | + (a delta R of between 0 and 30) | COCCn1nccc1-c1ncccc1COc1cnc(OC)cc1C=O [Compound 172, 2-methoxy-5-((2-(1-(2-methoxyethyl)-1H-pyrazol-5-yl)pyridin-3-yl)methoxy)isonicotinaldehyde] | –
15 | +++ (a delta p50% of 50 or greater) | ++ (a delta R of between 30 and 50) | COc1cc(C=O)c(OCc2cccnc2Br)cn1 [Compound 63, 5-((2-bromopyridin-3-yl)methoxy)-2-methoxyisonicotinaldehyde] | –
16 | ++ (a delta p50% of between 30 and 50) | + (a delta R of between 0 and 30) | COc1cc(C=O)c(OCc2cncc(C)c2)cn1 [Compound 43, 2-methoxy-5-((5-methylpyridin-3-yl)methoxy)isonicotinaldehyde] | –
17 | ++ (a delta p50% of between 30 and 50) | + (a delta R of between 0 and 30) | COc1cc(C=O)c(OCc2cccnc2-n2cccn2)cn1 [Compound 134, 5-((2-(1H-pyrazol-1-yl)pyridin-3-yl)methoxy)-2-methoxyisonicotinaldehyde] | –
18 | +++ (a delta p50% of 50 or greater) | ++ (a delta R of between 30 and 50) | COc1cc(C=O)c(OCc2ccc3ccccc3n2)cn1 [Compound 45, 2-methoxy-5-(quinolin-2-ylmethoxy)isonicotinaldehyde] | –
19 | ++ (a delta p50% of between 30 and 50) | +++ (a delta R of 50 or greater) | Cc1ccc(OCc2ccc3cnn(C)c3c2)c(C=O)n1 [Compound 91, 6-methyl-3-((1-methyl-1H-indazol-6-yl)methoxy)picolinaldehyde] | –
20 | ++ (a delta p50% of between 30 and 50) | – | Cc1ccc(OCc2ccnc3cccnc23)c(C=O)n1 [Compound 106, 3-((1,5-naphthyridin-4-yl)methoxy)-6-methylpicolinaldehyde] | + (a delta p50% of between 0 and 29)
21 | – | – | COCCOc1cc(C=O)c(OCc2cccnc2-c2ccnn2CCC(F)(F)F)cn1 [Compound 209, 2-(2-methoxyethoxy)-5-((2-(1-(3,3,3-trifluoropropyl)-1H-pyrazol-5-yl)pyridin-3-yl)methoxy)isonicotinaldehyde] | + (a delta p50% of between 0 and 29)
22 | +++ (a delta p50% of 50 or greater) | – | COc1cc(C=O)c(OCc2nccc3ccccc23)cn1 [Compound 44, 5-(isoquinolin-1-ylmethoxy)-2-methoxyisonicotinaldehyde] | + (a delta p50% of between 0 and 29)

Row | Structure (SMILES) | delta p50% [1] | delta R (HbS/A) | delta p50% Values for Whole Blood Assay (whole blood)
23 | COc1cc(C=O)c(OCc2cccnc2-c2ccnn2COCC[Si](C)(C)C)cn1 [Compound 193, 2-methoxy-5-((2-(1-((2-(trimethylsilyl)ethoxy)methyl)-1H-pyrazol-5-yl)pyridin-3-yl)methoxy)isonicotinaldehyde] | ++ (a delta p50% of between 30 and 50) | + (a delta R of between 0 and 30) | –
